Measurements: patent publication US9057093B2 (priority 2010, dated 2015)
Read-outs that look alike come from different tables or passages of the source.

Tested on: Legionella pneumophila strains
Format: cell-based
Conditions: for optimal dose: dose giving best improvement in latency and/or growth rate
[1] = doses of between 10^−6 to 10^−2 mM, especially 10^−4 mM, numerous strains
[2] = supplemented medium vs reference medium (YEC), doses between 0.01 and 5% weight of compound on volume of sample, variety of strains

SMILES | latency and/or growth rate [1] | latency and/or growth rate (doses of between 1 to 10^−4 mM, especially around 10^−2 mM, a number of strains) | optimal dose | latency and/or growth rate [2]
[Ca+2].[Cl-].[Cl-] [calcium chloride] | Improvements in latency and/or growth rate | – | – | –
[Cl-].[Cl-].[Mg+2] [magnesium chloride] | Improvements in latency and/or growth rate | – | – | –
[Cl-].[K+] [potassium chloride] | – | Improvements in latency and/or growth rate | – | –
N[C@@H](CO)C(=O)O [serine] | – | – | around 1 g per litre | improvements in latency and/or growth rate
C[C@@H](O)[C@H](N)C(=O)O [threonine] | – | – | around 1 g per litre | improvements in latency and/or growth rate
